In ChEMBL document CHEMBL4420068, “Samhd1 modulation for treating resistance to cancer therapy” (2018):
In brackets after ≈: the same amount, converted by molar mass. Activity calls are given as the source filed them. No cut-off for these calls is given here.

What was measured:
THP-1 [1] = experiment: Ratio of cytotoxic IC50 for human THP1 (+/+) cells expressing wild type SAMHD1 to cytotoxic IC50 for human THP1 cells with CRISP/CAS9 SAMHD1 knockout; type: functional
THP-1 [2] = experiment: Ratio of cytotoxic IC50 for human THP1 cells with constitutively expressing high SAMHD1 expression to cytotoxic IC50 for parental human THP1 cells expressing low SAMHD1 expression; type: functional
U-251 = experiment: Cytotoxic activity against human U251MG cells assessed as reduction in cell viability incubated for 96 hrs by MTT assay; type: functional, cell-based; settings: U-251, 96 h
HEL = experiment: Cytotoxic activity against human HEL cells assessed as reduction in cell viability at 10 to 50 ug/ml in presence of lentiviral protein X- virus-like particles incubated for 96 hrs by MTT assay; type: functional, cell-based
MOLM-13 = experiment: Cytotoxic activity against human MOLM13 cells assessed as reduction in cell viability at 10 to 50 ug/ml in presence of lentiviral protein X- virus-like particles incubated for 96 hrs by MTT assay; type: functional, cell-based
[3] = molecular target: Deoxynucleoside triphosphate triphosphohydrolase SAMHD1 (Homo sapiens) (UniProt Q9Y3Z3); experiment: Substrate activity at SAMHD1 (unknown origin) expressed in bacterial system expressed in bacteria assessed as triphospho-hydolase activity by measuring cytarabine tri-phosphate […]
HL-60 = experiment: Cytotoxic activity against human HL60 cells assessed as reduction in cell viability at 10 to 50 ug/ml in presence of lentiviral protein X- virus-like particles incubated for 96 hrs by MTT assay; type: functional, cell-based

Sequence of Deoxynucleoside triphosphate triphosphohydrolase SAMHD1 (Homo sapiens) (Q9Y3Z3 whole entry): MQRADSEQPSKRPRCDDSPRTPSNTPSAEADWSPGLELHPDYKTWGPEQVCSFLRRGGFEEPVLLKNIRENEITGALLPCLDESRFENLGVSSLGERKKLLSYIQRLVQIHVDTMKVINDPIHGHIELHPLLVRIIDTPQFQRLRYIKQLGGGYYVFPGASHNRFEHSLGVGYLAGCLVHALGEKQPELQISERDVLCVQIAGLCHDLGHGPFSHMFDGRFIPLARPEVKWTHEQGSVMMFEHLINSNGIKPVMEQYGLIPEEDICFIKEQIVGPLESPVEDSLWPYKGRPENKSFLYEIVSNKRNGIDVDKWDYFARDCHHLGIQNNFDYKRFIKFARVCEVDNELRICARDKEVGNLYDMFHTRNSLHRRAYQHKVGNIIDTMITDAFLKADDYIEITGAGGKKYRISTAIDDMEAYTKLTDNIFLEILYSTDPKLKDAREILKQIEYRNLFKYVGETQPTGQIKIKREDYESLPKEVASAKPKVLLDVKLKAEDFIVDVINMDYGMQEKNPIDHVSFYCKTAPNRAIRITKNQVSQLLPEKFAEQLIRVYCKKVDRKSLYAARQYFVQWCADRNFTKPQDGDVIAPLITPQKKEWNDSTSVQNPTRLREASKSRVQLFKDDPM

Row | SMILES | Ratio IC50 (THP-1 [1]) | Ratio IC50 (THP-1 [2]) | other results
1 | Nc1nc(Cl)nc2c1ncn2[C@H]1C[C@H](O)[C@@H](CO)O1 [CLADRIBINE] | 1 | 2 | –
2 | Nc1nc(Cl)nc2c1ncn2[C@@H]1O[C@H](CO)[C@@H](O)[C@@H]1F [CLOFARABINE] | – | 11 | –
3 | Nc1ccn([C@@H]2O[C@H](CO)[C@@H](O)[C@@H]2O)c(=O)n1 [CYTARABINE] | – | – | IC50 (U-251): 0.022 µg/mL (≈ 0.0905 µM); Activity (HEL): Active; Activity (MOLM-13): Active; Activity [3]: Active; Activity (HL-60): Active
4 | COc1cccc2c1C(=O)c1c(O)c3c(c(O)c1C2=O)C[C@@](O)(C(C)=O)C[C@@H]3O[C@H]1C[C@H](N)[C@H](O)[C@H](C)O1 [DAUNORUBICIN] | 1 | 1 | –
5 | Nc1ncn([C@H]2C[C@H](O)[C@@H](CO)O2)c(=O)n1 [DECITABINE] | 9 | 6 | –
6 | Nc1nc(F)nc2c1ncn2[C@@H]1O[C@H](CO)[C@@H](O)[C@@H]1O [FLUDARABINE] | – | 6 | –
7 | Nc1ccn([C@@H]2O[C@H](CO)[C@@H](O)C2(F)F)c(=O)n1 [GEMCITABINE] | 1 | 0.5 | –
8 | COc1nc(N)nc2c1ncn2[C@@H]1O[C@H](CO)[C@@H](O)[C@@H]1O [NELARABINE] | – | 4 | –
9 | NC(=O)c1ncn([C@@H]2O[C@H](CO)[C@@H](O)[C@H]2O)n1 [RIBAVIRIN] | 0.5 | 0.5 | –
10 | Nc1nc2[nH]cnc2c(=S)[nH]1 [THIOGUANINE] | 1 | 1 | Activity [3]: Active
